Laboratory results: patent US11299641B2, “Curable liquid composition, composition-accommodating container, liquid composition discharging device, cured material, and method of manufacturing cured material” (RICOH COMPANY, LTD., priority 2018, dated 2022)

Tests used:
[1] = system: female mice; experiment: skin sensitization test in accordance with the Local Lymph Node Assay (LLNA) method, SI value; type: in vivo; settings: test substance 50.0 w/v percent in acetone/olive oil 4 to 1, 25 μL per ear once a day for three days, BrdU intake
Procedure: The SI value was measured in the manner described below according to the skin sensitization test in accordance with the Local Lymph Node Assay (LLNA) method.
α-hexylcinnamaldehyde (HCA; product of FUJIFILM Wako Pure Chemical Corporation) was used as positive control material.
A liquid mixture containing acetone (product of FUJIFILM Wako Pure Chemical Corporation) and olive oil (product of Fudimi Pharmaceutical Co., Ltd.) in a volume ratio of 4 to 1 was used as medium.
For each of the test substances, the positive control, or the medium control, female mice were acclimated for 8 days including 6-day quarantine. No abnormalities were found in all the mice during the quarantine/acclimation period.
Based on the body weights measured two days before the initiation of sensitization, the mice were categorized into 2 groups (4 mice/group) by the body weight stratified random sampling method so that the body weight of each individual was within −20 to +20 percent of the average body weight of all the individuals. Each of the tested animals was 8 to 9 weeks old at the time of the initiation of sensitization. The individuals not classified into the groups were excluded from the test.
The group compositions of the medium control group and positive control group used for the measurement of the SI value are shown in Table 1.
The test substance was weighed in a measuring flask, and the volume of the test substance was adjusted to 1 mL while adding the medium. The thus-prepared test substance solution was placed in a light-shielded airtight container (made of glass).
The preparation solution and the medium of each test substance and positive control substance were applied to both ears of each animal in an amount of 25 μL for each. A micropipettor was used for application. The tested animals were subjected to this treatment once a day for three consecutive days.
About 48 hours after the final sensitization, the BrdU preparation solution (0.5 mL) was intraperitoneally administered once to each of the tested animals.
All the animals used for the test were observed once or more times a day from the day of the initiation of sensitization to the day of the removal of the auricular lymph node (i.e., the day when the animals were transferred from the animal room). […] Measurement of Body Weights The body weight of each of the tested animals was measured on the day of the initiation of sensitization and on the day of the removal of the auricular lymph node (i.e., the day when the animals were transferred from the animal room). Also, the weight average and the standard error for each group were calculated. Removal of Auricular Lymph Node and Measurement of Weight Thereof About 24 hours after the administration of BrdU, the tested animals were allowed to undergo euthanasia, and their auricular lymph nodes were sampled. The surrounding tissue of each auricular lymph node was removed, and the auricular lymph nodes from both the auricles were collectively weighed. Also, the weight average and the standard error of the auricular lymph nodes for each group were calculated. After the weight measurement, the auricular lymph nodes of each individual were stored in a frozen state using a BIO MEDICAL FREEZER set to −20 degrees C. Measurement of BrdU Intake After returning the auricular lymph nodes to room temperature, the auricular lymph nodes were mashed with the gradual addition of physiological saline, and suspended therein. The thus-obtained suspension was filtrated and thereafter dispensed into a 96-well microplate 3 wells by 3 wells per individual. The thus-dispensed suspensions were measured for intake of BrdU according to the ELISA method. The reagents used were a commercially available kit (Cell Proliferation ELISA, BrdU colorimetric, Cat. No. 1647229, product of Roche Diagnostics K.K.). […]

[2] = Safety Data Sheet; cited from earlier work

## C=C(C)C(=O)OCCOCCOC(=O)C(=C)C [Example A1, Diethylene glycol dimethacrylate]
[1]
  SI value in the LLNA test: 1.1

## C=CC(=O)OCCCCCCCCCCCCCCCC(C)C [Example A5, Isostearyl acrylate]
[1]
  SI value in the LLNA test: 1.4

## C=C(C)C(=O)OCC(CO)OC(=O)C(=C)C (stereo not drawn) [Example A7, Glycerol dimethacrylate]
[1]
  SI value in the LLNA test: 1.2

## C=C(C)C(=O)OCC(O)CO (stereo not drawn) [Example A8, Glycerol monomethacrylate]
[1]
  SI value in the LLNA test: 1.1

## CC(C)(O)C(=O)c1ccc(OCCO)cc1 [Example B1, 1-[4-(2-hydroxyethoxy)-phenyl]-2-hydroxy-2-methyl-1-propane-1-one]
[2]
  skin sensitization, evaluation by SDS: none

## CCC(Cc1ccccc1)(C(=O)c1ccc(N2CCOCC2)cc1)N(C)C (stereo not drawn) [Example B3, 2-(dimethylamino)-1-(4-morpholinophenyl)-2-benzyl-1-butanone]
[1]
  SI value in the LLNA test: 10

## Caprolactone-modified dipentaerythritol hexaacrylate [Example A2]
[2]
  skin sensitization, evaluation by SDS: none

## Polypropylene glycol diacrylate [Example A4]
[1]
  SI value in the LLNA test: 1.5

## Tricyclodecanedimethanol dimethacrylate [Example A6]
[1]
  SI value in the LLNA test: 1.3
